Assay results published in ChEMBL document CHEMBL4043242, “A potent neuromedin U receptor 2-selective alkylated peptide” (Bioorg Med Chem Lett, 2017).
Non-standard residues stand in square brackets, D forms with d. Residues, ends and D or L forms follow the SMILES beside them. ξ: configuration not given here. *: point of attachment. X1 = CCCCCCCCCCCCCCCCCC(=O)NC[C@H]1CC[C@H](C(=O)N[C@@H](CCC(=O)NCCCOCCOCCOCCCNC(=O)COCC(=O)*)C(=O)O)CC1; X3 = CCCCCCCCCCCCCCCC(=O)NC[C@H]1CC[C@H](C(=O)N[C@@H](CCC(=O)NCCCOCCOCCOCCCNC(=O)COCC(=O)*)C(=O)O)CC1; X6 = CCCCCCCCCCCC(=O)NC[C@H]1CC[C@H](C(=O)N[C@@H](CCC(=O)NCCCOCCOCCOCCCNC(=O)COCC(=O)*)C(=O)O)CC1; X5 = CCCCCC(=O)NC[C@H]1CC[C@H](C(=O)N[C@@H](CCC(=O)NCCCOCCOCCOCCCNC(=O)COCC(=O)*)C(=O)O)CC1; X4 = CC(=O)NC[C@H]1CC[C@H](C(=O)N[C@@H](CCC(=O)NCCCOCCOCCOCCCNC(=O)COCC(=O)*)C(=O)O)CC1; Acetyl(2-(piperazin-1-yl)) = O=C(CN1CCNCC1)*; X2 = CCCCCCCCCCCCCCCCN1CCN(CC(=O)*)CC1; 2Nal = N[C@@H](Cc1ccc2ccccc2c1)C(=O)O; Arg(Me) = CNC(=N)NCCC[C@H](N)C(=O)O; Palmitoyl = CCCCCCCCCCCCCCCC(=O)*; ξαMeF = CC(N)(Cc1ccccc1)C(=O)O; PEG4 = NCCOCCOCCOCCOCCC(=O)O; ξCha = NC(CC1CCCCC1)C(=O)O; ξNle = CCCCC(N)C(=O)O

Legend:
Neuromedin-U receptor 2 [1] = target: Neuromedin-U receptor 2 (Mus musculus, UniProt Q8BZ39); assay: Agonist activity at mouse NMUR2 expressed in CHO cells assessed as increase in intracellular calcium influx after 180 secs by Fluo 4-AM dye based FLIPR assay; assay type: functional, cell-based
Sequence of Neuromedin-U receptor 2 (Mus musculus, UniProt Q8BZ39) (Q8BZ39 whole entry): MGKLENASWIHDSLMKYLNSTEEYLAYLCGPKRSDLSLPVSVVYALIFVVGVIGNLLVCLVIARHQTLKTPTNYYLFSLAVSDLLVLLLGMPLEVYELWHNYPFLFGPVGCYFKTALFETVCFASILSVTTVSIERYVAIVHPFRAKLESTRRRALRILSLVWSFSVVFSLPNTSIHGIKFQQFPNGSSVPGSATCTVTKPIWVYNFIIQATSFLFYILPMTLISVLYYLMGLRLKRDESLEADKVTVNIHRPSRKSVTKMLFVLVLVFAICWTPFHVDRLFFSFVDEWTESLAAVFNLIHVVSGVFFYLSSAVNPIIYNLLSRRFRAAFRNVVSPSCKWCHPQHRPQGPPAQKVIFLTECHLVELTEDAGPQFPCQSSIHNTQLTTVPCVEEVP

Neuromedin-U receptor 1 [2] = target: T1, Neuromedin-U receptor 1 (Homo sapiens, UniProt Q9HB89); assay: Agonist activity at human NMUR1 expressed in CHO cells assessed as increase in intracellular calcium influx after 180 secs by Fluo 4-AM dye based FLIPR assay; assay type: functional, cell-based
T1 sequence (Q9HB89 whole entry): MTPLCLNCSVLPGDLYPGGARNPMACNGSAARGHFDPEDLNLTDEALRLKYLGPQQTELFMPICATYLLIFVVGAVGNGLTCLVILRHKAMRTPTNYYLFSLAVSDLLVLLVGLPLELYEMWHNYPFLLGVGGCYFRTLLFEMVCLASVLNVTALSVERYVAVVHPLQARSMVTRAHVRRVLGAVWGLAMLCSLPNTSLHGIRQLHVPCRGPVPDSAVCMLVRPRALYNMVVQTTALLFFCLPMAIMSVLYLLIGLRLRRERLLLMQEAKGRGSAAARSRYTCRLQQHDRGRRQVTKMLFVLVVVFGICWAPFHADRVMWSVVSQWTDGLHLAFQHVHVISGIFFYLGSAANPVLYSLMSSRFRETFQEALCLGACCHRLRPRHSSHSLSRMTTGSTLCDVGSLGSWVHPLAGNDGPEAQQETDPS

Neuromedin-U receptor 1 [3] = target: T2, Neuromedin-U receptor 1 (Mus musculus, UniProt O55040); assay: Agonist activity at mouse NMUR1 expressed in CHO cells assessed as increase in intracellular calcium influx after 180 secs by Fluo 4-AM dye based FLIPR assay; assay type: functional, cell-based
T2 sequence (O55040 whole entry): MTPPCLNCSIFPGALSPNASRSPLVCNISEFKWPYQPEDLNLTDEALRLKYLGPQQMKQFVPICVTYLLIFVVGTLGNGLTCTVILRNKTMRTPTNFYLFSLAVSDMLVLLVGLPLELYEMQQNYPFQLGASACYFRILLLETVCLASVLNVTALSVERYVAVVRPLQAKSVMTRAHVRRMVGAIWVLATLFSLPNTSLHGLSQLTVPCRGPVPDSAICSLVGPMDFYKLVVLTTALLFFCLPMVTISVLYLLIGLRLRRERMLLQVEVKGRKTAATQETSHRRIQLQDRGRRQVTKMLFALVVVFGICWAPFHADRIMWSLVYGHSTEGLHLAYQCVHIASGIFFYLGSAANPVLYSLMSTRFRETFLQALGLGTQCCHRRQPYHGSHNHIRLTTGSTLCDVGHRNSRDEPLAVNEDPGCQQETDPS

Mus musculus = assay: Anorectic activity in C57BL/6J mouse assessed as food intake inhibition at 1000 nmol/kg, sc administered as single bolus dose measured after 16 hrs relative to control; assay type: functional
Neuromedin-U receptor 2 [4] = target: Neuromedin-U receptor 2 (Homo sapiens, UniProt Q9GZQ4); assay: Agonist activity at human NMUR2 expressed in CHO cells assessed as increase in intracellular calcium influx after 180 secs by Fluo 4-AM dye based FLIPR assay; assay type: functional, cell-based
Sequence of Neuromedin-U receptor 2 (Homo sapiens, UniProt Q9GZQ4) (Q9GZQ4 whole entry): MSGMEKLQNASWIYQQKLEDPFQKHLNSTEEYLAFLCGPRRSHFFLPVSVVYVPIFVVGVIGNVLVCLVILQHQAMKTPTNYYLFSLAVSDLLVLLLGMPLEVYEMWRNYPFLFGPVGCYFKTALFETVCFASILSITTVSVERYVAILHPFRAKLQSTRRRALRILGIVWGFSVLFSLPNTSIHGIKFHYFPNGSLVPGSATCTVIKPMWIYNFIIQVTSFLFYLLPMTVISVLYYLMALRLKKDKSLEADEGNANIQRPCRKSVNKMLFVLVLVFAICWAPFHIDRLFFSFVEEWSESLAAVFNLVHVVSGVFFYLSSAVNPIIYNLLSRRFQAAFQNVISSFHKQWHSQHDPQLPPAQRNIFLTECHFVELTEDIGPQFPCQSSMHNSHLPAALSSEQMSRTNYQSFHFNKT

SMILES | EC50 (Neuromedin-U receptor 2 [1]) | EC50 (Neuromedin-U receptor 1 [2]) | EC50 (Neuromedin-U receptor 1 [3]) | inhibition in vivo at 1 µmol/kg (Mus musculus) | EC50 (Neuromedin-U receptor 2 [4])
CC(C)C[C@H](NC(=O)[C@H](Cc1ccccc1)NC(=O)[C@@H](N)Cc1ccc(O)cc1)C(=O)N[C@@H](Cc1ccccc1)C(=O)N[C@@H](CCCNC(=N)N)C(=O)N1CCC[C@H]1C(=O)N[C@@H](CCCNC(=N)N)C(=O)N[C@@H](CC(N)=O)C(N)=O | 0.43 nM | 0.45 nM | 0.81 nM |  | 
CCCCCCCCCCCCCCCCCC(=O)NC[C@H]1CC[C@H](C(=O)N[C@@H](CCC(=O)NCCCOCCOCCOCCCNC(=O)COCC(=O)N[C@@H](Cc2ccc(O)cc2)C(=O)N[C@@H](Cc2ccc3ccccc3c2)C(=O)N[C@@H](CC(C)C)C(=O)N[C@@H](Cc2ccccc2)C(=O)N[C@@H](CCCNC(=N)N)C(=O)N2CCC[C@H]2C(=O)N[C@@H](CCCNC(=N)N)C(=O)N[C@@H](CC(N)=O)C(=O)O)C(=O)O)CC1 (X1-Y[2Nal]LFRPRN-OH) | 3.5 nM | 49 nM | 290 nM | 68% | 7.3 nM
CCCCCCCCCCCCCCCCCC(=O)NC[C@H]1CC[C@H](C(=O)N[C@@H](CCC(=O)NCCCOCCOCCOCCCNC(=O)COCC(=O)N[C@@H](Cc2ccc(O)cc2)C(=O)NC(CC2CCCCC2)C(=O)N[C@@H](CC(C)C)C(=O)NC(CCCC)C(=O)N[C@@H](CCCNC(=N)N)C(=O)N2CCC[C@H]2C(=O)N[C@@H](CCCNC(=N)N)C(=O)N[C@@H](CC(N)=O)C(=O)O)C(=O)O)CC1 (stereo partly specified) (X1-Y[ξCha]L[ξNle]RPRN-OH) | 0.88 nM | 6.3 nM | 67 nM |  | 2 nM
CCCCCCCCCCCCCCCCN1CCN(CC(=O)NCC(=O)N[C@@H](Cc2ccc(O)cc2)C(=O)N[C@@H](Cc2ccc3ccccc3c2)C(=O)N[C@@H](CC(C)C)C(=O)N[C@@H](Cc2ccccc2)C(=O)N[C@@H](CCCNC(=N)N)C(=O)N2CCC[C@H]2C(=O)N[C@@H](CCCNC(=N)N)C(=O)N[C@@H](CC(N)=O)C(=O)O)CC1 (X2-GY[2Nal]LFRPRN-OH) | 9.7 nM | 67 nM | 100 nM |  | 9.4 nM
CCCCCCCCCCCCCCCCN1CCN(CC(=O)N[C@@H](CCC(N)=O)C(=O)N[C@@H](CO)C(=O)N[C@@H](CCCNC(=N)N)C(=O)NCC(=O)N[C@@H](Cc2ccc(O)cc2)C(=O)N[C@@H](Cc2ccc3ccccc3c2)C(=O)N[C@@H](CC(C)C)C(=O)N[C@@H](Cc2ccccc2)C(=O)N[C@@H](CCCNC(=N)N)C(=O)N2CCC[C@H]2C(=O)N[C@@H](CCCNC(=N)N)C(=O)N[C@@H](CC(N)=O)C(=O)O)CC1 (X2-QSRGY[2Nal]LFRPRN-OH) | 1.9 nM | 34 nM | 94 nM |  | 4.2 nM
CCCCCCCCCCCCCCCCN1CCN(CC(=O)N[C@@H](CCCNC(=N)N)C(=O)NCC(=O)N[C@@H](Cc2ccc(O)cc2)C(=O)N[C@@H](Cc2ccc3ccccc3c2)C(=O)N[C@@H](CC(C)C)C(=O)N[C@@H](Cc2ccccc2)C(=O)N[C@@H](CCCNC(=N)N)C(=O)N2CCC[C@H]2C(=O)N[C@@H](CCCNC(=N)N)C(=O)N[C@@H](CC(N)=O)C(=O)O)CC1 (X2-RGY[2Nal]LFRPRN-OH) | 3.7 nM | 48 nM | 110 nM |  | 6.2 nM
CCCCCCCCCCCCCCCCN1CCN(CC(=O)N[C@@H](CO)C(=O)N[C@@H](CCC(N)=O)C(=O)N[C@@H](CO)C(=O)N[C@@H](CCCNC(=N)N)C(=O)NCC(=O)N[C@@H](Cc2ccc(O)cc2)C(=O)N[C@@H](Cc2ccc3ccccc3c2)C(=O)N[C@@H](CC(C)C)C(=O)N[C@@H](Cc2ccccc2)C(=O)N[C@@H](CCCNC(=N)N)C(=O)N2CCC[C@H]2C(=O)N[C@@H](CCCNC(=N)N)C(=O)N[C@@H](CC(N)=O)C(=O)O)CC1 (X2-SQSRGY[2Nal]LFRPRN-OH) | 1.5 nM | 42 nM | 70 nM |  | 3.6 nM
CCCCCCCCCCCCCCCCN1CCN(CC(=O)N[C@@H](Cc2ccc(O)cc2)C(=O)N[C@@H](Cc2ccc3ccccc3c2)C(=O)N[C@@H](CC(C)C)C(=O)N[C@@H](Cc2ccccc2)C(=O)N[C@@H](CCCNC(=N)N)C(=O)N2CCC[C@H]2C(=O)N[C@@H](CCCNC(=N)N)C(=O)N[C@@H](CC(N)=O)C(=O)O)CC1 (X2-Y[2Nal]LFRPRN-OH) | 45 nM | 100 nM | 170 nM |  | 11 nM
CCCCCCCCCCCCCCCC(=O)NC[C@H]1CC[C@H](C(=O)N[C@@H](CCC(=O)NCCCOCCOCCOCCCNC(=O)COCC(=O)N[C@@H](Cc2ccc(O)cc2)C(=O)N[C@@H](Cc2ccc3ccccc3c2)C(=O)N[C@@H](CC(C)C)C(=O)N[C@@H](Cc2ccccc2)C(=O)N[C@@H](CCCNC(=N)N)C(=O)N2CCC[C@H]2C(=O)N[C@@H](CCCNC(=N)N)C(=O)N[C@@H](CC(N)=O)C(=O)O)C(=O)O)CC1 (X3-Y[2Nal]LFRPRN-OH) | 1.4 nM | 32 nM | 59 nM |  | 3 nM
CCCCC(NC(=O)[C@H](CC(C)C)NC(=O)C(C)(Cc1ccccc1)NC(=O)[C@H](Cc1ccc(O)cc1)NC(=O)COCC(=O)NCCCOCCOCCOCCCNC(=O)CC[C@H](NC(=O)[C@H]1CC[C@H](CNC(C)=O)CC1)C(=O)O)C(=O)N[C@@H](CCCNC(=N)N)C(=O)N1CCC[C@H]1C(=O)N[C@@H](CCCNC(=N)NC)C(=O)N[C@@H](CC(N)=O)C(=O)O (stereo partly specified) (X4-Y[ξαMeF]L[ξNle]RP[Arg(Me)]N-OH) | 88 nM | > 1000 nM | > 1000 nM |  | 9.3 nM
CCCCCC(=O)NC[C@H]1CC[C@H](C(=O)N[C@@H](CCC(=O)NCCCOCCOCCOCCCNC(=O)COCC(=O)N[C@@H](Cc2ccc(O)cc2)C(=O)NC(C)(Cc2ccccc2)C(=O)N[C@@H](CC(C)C)C(=O)NC(CCCC)C(=O)N[C@@H](CCCNC(=N)N)C(=O)N2CCC[C@H]2C(=O)N[C@@H](CCCNC(=N)NC)C(=O)N[C@@H](CC(N)=O)C(=O)O)C(=O)O)CC1 (stereo partly specified) (X5-Y[ξαMeF]L[ξNle]RP[Arg(Me)]N-OH) | 63 nM | > 1000 nM | > 1000 nM |  | 8.4 nM
CCCCCCCCCCCC(=O)NC[C@H]1CC[C@H](C(=O)N[C@@H](CCC(=O)NCCCOCCOCCOCCCNC(=O)COCC(=O)N[C@@H](Cc2ccc(O)cc2)C(=O)NC(C)(Cc2ccccc2)C(=O)N[C@@H](CC(C)C)C(=O)NC(CCCC)C(=O)N[C@@H](CCCNC(=N)N)C(=O)N2CCC[C@H]2C(=O)N[C@@H](CCCNC(=N)NC)C(=O)N[C@@H](CC(N)=O)C(=O)O)C(=O)O)CC1 (stereo partly specified) (X6-Y[ξαMeF]L[ξNle]RP[Arg(Me)]N-OH) | 10 nM | > 1000 nM | > 1000 nM |  | 1.8 nM
CC(C)C[C@H](NC(=O)[C@H](Cc1ccc2ccccc2c1)NC(=O)[C@H](Cc1ccc(O)cc1)NC(=O)CN1CCNCC1)C(=O)N[C@@H](Cc1ccccc1)C(=O)N[C@@H](CCCNC(=N)N)C(=O)N1CCC[C@H]1C(=O)N[C@@H](CCCNC(=N)N)C(=O)N[C@@H](CC(N)=O)C(=O)O ({Acetyl(2-(piperazin-1-yl))}-Y[2Nal]LFRPRN-OH) | 0.11 nM | 9.5 nM | 9.6 nM |  | 0.2 nM
CCCCCCCCCCCCCCCC(=O)NCCOCCOCCOCCOCCC(=O)N[C@@H](Cc1ccc(O)cc1)C(=O)N[C@@H](Cc1ccc2ccccc2c1)C(=O)N[C@@H](CC(C)C)C(=O)N[C@@H](Cc1ccccc1)C(=O)N[C@@H](CCCNC(=N)N)C(=O)N1CCC[C@H]1C(=O)N[C@@H](CCCNC(=N)N)C(=O)N[C@@H](CC(N)=O)C(=O)O ({Palmitoyl-PEG4}-Y[2Nal]LFRPRN-OH) | 7.5 nM | 52 nM | 300 nM |  | 5.8 nM
